# What was measured:
# [1] = Influence of UV irradiation on fluorescence intensity of SAHA-fluorophore conjugates; type: physicochemical; conditions: UV irradiated 0-30 minutes; HEK293T cells expressing HDAC6-NANOLUC fusion
# Experimental: During development of the BRET approach described herein for estimating crosslinking efficiency, experiments were conducted to determine the influence of UV irradiation on the bioluminescent intensity of the energy donor NANOLUC, and the fluorescence intensity of three fluorophores that can be used as energy acceptors (FIGS. 12-15). The model system for these experiments (FIG. 13) was the interaction between HDAC6 fused to NANOLUC and SAHA (vorinostat), which binds to HDAC6 and was conjugated to one of three fluorophores NCT, TAMRA, and BODIPY576 (FIG. 12). In these experiments HEK293T cells transiently expressing HAD6-NANOLUC fusion were treated for 2 hours with serial dilution of SAHA-fluorophore conjugate, then UV irradiated for 0-30 minutes and subsequently treated with NANOGLO detection reagent. […] Thus, NANOLUC and NCT were chosen as a BRET donor and acceptor pair for the assays estimating photocrosslinking efficiency.
# [2] = tested on: STAT5 reporter; assay: STAT5 reporter expression in K-562 cells; type: cell-based; conditions: Homo sapiens, K562; K-562 cells transiently expressing a STAT5 reporter, 24 hours; read-out: IC50, inhibited expression of a STAT5 reporter
# Experimental: Dasatinib is a broad kinase inhibitor targeting the BCR-ABL oncogenic pathway, thereby reducing the downstream activation of STAT5. K-562 cells transiently expressing a STAT5 reporter (2×10^5 cells/mL) were treated with serial dilution of dasatinib or a derivative having cleavable chloroalkane tag (+/−a PRG) for 24 hours and then tested for expression of the STAT5 reporter.
Compound,Fluorescence intensity under UV irradiation [1],IC50 [2]
O=C(CCCCCCC(=O)Nc1ccc(CNC(=O)c2ccc(C(=O)O)c(C3=c4cc5c6c(c4Oc4c3cc3c7c4CCCN7CCCC3)CCC[N+]=6CCCC5)c2)cc1)NO [SAHA-NCT],not significantly affected,
O=C(CCCCCCC(=O)Nc1ccc(CNC(=O)CCc2ccc3n2[B-](F)(F)[N+]2=C(c4ccc[nH]4)C=CC2=C3)cc1)NO [SAHA-BODIPY576],decreased the fluorescence intensity,
CN(C)c1ccc2c(-c3cc(C(=O)NCc4ccc(NC(=O)CCCCCCC(=O)NO)cc4)ccc3C(=O)O)c3ccc(=[N+](C)C)cc-3oc2c1 [SAHA-TMR],decreased the fluorescence intensity,
Cc1nc(Nc2ncc(C(=O)Nc3c(C)cccc3Cl)s2)cc(N2CCN(CCO)CC2)n1 [dasatinib],,0.4 nM
